# Measurements reported in paper PMC10298979, “Assessments of Alpha-Amylase Inhibitory Potential of Tagetes Flavonoids through In Vitro, Molecular Docking, and Molecular Dynamics Simulation Studies” (International Journal of Molecular Sciences, 2023).
# Columns and labels:
# [1] = no reference given; cited from earlier work
# alpha-amylase = experiment: in vitro alpha-amylase inhibition (AAI) assay, Ultra-Amylase EnzChek Assay Kit; assay type: biochemical
# Text: The AAI capacity of T. minuta flavonoids was estimated using an Ultra-Amylase®Enz-Chek Assay Kit in line with a formerly reported method.
# [2] = parameters: method as in PMID 24599122, PMID 16168446; conditions: cited from earlier work; for IC50 for DPPH: radical scavenging
# [3] = parameters: method as in PMID 24599122, PMID 16168446; conditions: cited from earlier work
# [4] = test system: PE (phenylephrine)-precontracted thoracic aortic rings; parameters: method as in PMID 23763258; conditions: PE-precontracted thoracic aortic rings in rats; cited from earlier work
SMILES,IC50 (alpha-amylase) [µM],further results
C[C@H]1O[C@H](O[C@H]2[C@H](O)[C@@H](O)[C@@H](O[C@H]3[C@H](O)[C@@H](O)C(O)O[C@@H]3CO)O[C@@H]2CO)[C@H](O)[C@@H](O)[C@@H]1N[C@H]1C=C(CO)[C@@H](O)[C@H](O)[C@H]1O (stereo partly shown) [Acarbose],,oral dose absorbed into the bloodstream [1]: 2%; oral dose eliminated through fecal excretion [1]: approximately 51%
"O=C(C=Cc1ccc(O)c(O)c1)OCC1OC(Oc2c(O)cc3oc(-c4ccc(O)c(O)c4)c(O)c(=O)c3c2O)C(O)C(O)C1O [Compound 1, quercetagetin-6-O-(6-O-caffeoyl-β-D-glucopyranoside)]",10.1,DPPH scavenging [2]: 89.1%
"O=c1c(O)c(-c2ccc(O)c(O)c2)oc2cc(OC3OC(CO)C(O)C(O)C3O)c(O)c(O)c12 [Compound 2, quercetagetin-7-O-β-D-glucopyranoside]",7.8,IC50 for DPPH [2]: 3.92 µg/mL; %inhibition for superoxide anion [3]: 82.85%; vasorelaxation [4]: vasorelaxation potential
"O=c1c(O)c(-c2ccc(O)c(O)c2)oc2cc(O)c(OC3OC(CO)C(O)C(O)C3O)c(O)c12 [Compound 3, quercetagetin-6-O-β-D-glucopyranoside]",8.9,
"CCCCCC(=O)OCC1OC(Oc2c(O)cc3oc(-c4ccc(O)c(O)c4)c(O)c(=O)c3c2O)C(O)C(O)C1O (stereo not shown) [Compound 4, minutaside A]",9.2,
"COc1c(OC2OC(CO)C(O)C(O)C2O)cc2oc(-c3ccc(O)c(O)c3)c(O)c(=O)c2c1O [Compound 5, patuletin-7-O-β-D-glucopyranoside]",8.1,IC50 for DPPH [2]: 12.1 µg/mL
"COc1cc2oc(-c3ccc(O)c(O)c3)c(O)c(=O)c2c(O)c1O[C@@H]1O[C@H](CO)[C@@H](O)[C@H](O)[C@H]1O [Compound 6, quercetagetin-7-methoxy-6-O-β-D-glucopyranoside]",9.7,
"COc1c(-c2ccc(O)c(O)c2)oc2c(O)c(O)c(O[C@@H]3O[C@H](CO)[C@@H](O)[C@H](O)[C@H]3O)c(O)c2c1=O [Compound 7, tagenol B]",10.8,
"COc1c(O)cc2oc(-c3ccc(O)c(O)c3)c(O)c(=O)c2c1O [Compound 8, patuletin]",13.6,
"COc1cc2oc(-c3ccc(O)c(O)c3)c(OC)c(=O)c2c(O)c1O[C@@H]1O[C@H](CO)[C@@H](O)[C@H](O)[C@H]1O [Compound 9, quercetagetin-3,7-dimethoxy-6-O-β-D-glucopyranoside]",12.7,
"COc1c(-c2ccc(O)c(O)c2)oc2cc(O)cc(O)c2c1=O [Compound 10, quercetin-3-methyl ether]",26.9,
"COc1c(O)cc2oc(-c3ccc(O)c(O)c3)c(OC)c(=O)c2c1O [Compound 11, quercetin-3,6-dimethyl ether]",21.7,
"COc1ccc(-c2oc3c(O)c(O)c(OC)c(O)c3c(=O)c2OC)cc1O [Compound 12, tagenol A]",14.9,
